Data taken from patent US20220228124A1, “Three-Dimensional Cross-Linked Scaffolds Of Peripheral Blood Plasma And Their Use” (SANFORD HEALTH, priority 2019, published 2022).

Legend:
[1] = tested on: EpCAM+ BCa cells from patient biopsies; test: Survival of primary patient BCa cells in matched-plasma 3DeTME cultures; format: cell-based, human; settings: 7 days
Procedure: Methods: To evaluate the association between different variables, correlation tests were performed using the ggpubr R™ package. The Pearson correlation (r) was assessed in order to measure the linear dependence between two variables after confirmation of a normal distribution of the data. In order to assess the predictive value of the drug response metrics obtained in the 3DeTME assays with cell lines, we compared them with metric data obtained from literature relevant for 2D models (IC50) and other 3D models (IC50), as well as effective concentrations in patients from phase I or II studies that examined the pharmacokinetics of the tested chemotherapies (steady state concentration, Css). A scatterplot correlation graph allowed us to establish the strength, direction and form of the relationship between the in vitro models and the Css clinical data, with Pearson correlation coefficients (r) that were calculated to measure the strength of those relationships. […] Small organoids and single cells cultures were grown and analyzed at days 0.5 (γ0), 3, and 7. […] BCa cell counts were acquired and data was analyzed using FlowJo™ v10 (Ashland, Oreg.). Data was normalized to a predetermined number of counting beads, the proliferation of each condition (fold of γ0) and survival (% of control) was calculated and compared.

[2] = tested on: fibrinogen found naturally in plasma; test: Cross-linking time of plasma into 3DeTME matrix; format: biochemical, human
Procedure: (§1) Methods: 3DeTME cultures are formed through the cross-linking of fibrinogen found naturally in plasma. Cross-linking time was assessed by measuring the time necessary to achieve matrix cross-linking using three relevant cross-linkers of the blood coagulation process including Thrombin (0-5 mg/ml), CaCl2 (0-5 mg/ml), and Factor XIII (0-6 mg/ml). The stabilization effects of preventing fibrin degradation and stability improvement in the scaffold was assessed by surveying several chemical antifibrinolytic agents including tranexamic acid (AMCHA) (0-10 mg/ml), Aprotinin ([…]), epsilon-aminocaproic acid (EACA) (0-2.5 mg/ml), and 4-aminomethylbenzoic acid (PAMBA) (0-2.5 mg/ml). The stability of the scaffold was studied by measuring each scaffold weight at day 0 and again measuring scaffold weight at the conclusion of a 3 week time period. 3DeTME culture scaffold structure and morphology was analyzed with scanning electron microscopy (SEM) using a FEI Quanta™ 450 Scanning Electron Microscope at multiple magnifications. The stiffness of the scaffolds was measured by atomic force microscopy (AFM). The Young's modulus was estimated by fitting a modified Hertz model onto the AFM indentation curve using the built in function of AFM software (Asylum Research). Plasma from cancer patients and healthy subjects was analyzed for fibrinogen content through the clotting method of Clauss. The Clauss fibrinogen assay is a quantitative, clot-based, functional assay. The assay measures the ability of fibrinogen to form fibrin clot after being exposed to a high concentration of purified thrombin. Briefly, plasma samples were loaded into the STA-R™ Evolution Expert Series Hemostasis System (Diagnostica Stago Inc., Parsippany, N.J.) and automated testing was carried out by the analyzer. […] 3DeTME culture supernatants were collected and analyzed by a C-Series Custom Cytokine Antibody Array (RayBiotech Inc., Norcross, Ga.) according to the instructions provided by the manufacturer. […] The chemiluminescence signal intensity of each spot was quantified by densitometric analysis (VisionWorks Software). […]

[3] = tested on: three breast cancer (BCa) cell lines; test: 3DeTME drug screening, relative cell count and GR values; format: cell-based, human; settings: day 7; for response among the BCa cell lines: 3DeTME, 0.1 nM-300 μM
Procedure: (§2) Methods: Three breast cancer (BCa) cell lines were previously labeled with DiD and incorporated in 3DeTME. Half a day after plating, cells were treated with a DMSO control (γCtrl) and increasing concentrations 0.1 nM-300 μM of seven standard-of-care chemotherapeutic drugs including Methotrexate (MTX), Paclitaxel (PTX), Capecitabine (CAP), Cyclophosphamide Monohydrate (CYCLO), Carboplatin (CARBO), Epirubicin Hydrochloride (EPI), and Docetaxel (DTX). Treatments were added on top of 3DeTME in order to simulate drug diffusion into a tumor. Treatments were refreshed at day 4 and BCa cells were retrieved from the different cultures for analysis at day 0.5 (γ0) and day 7. Samples were prepared in PBS for flow cytometry by adding counting beads (424902, Biolegend, CA) in addition to SytoxTM green dead cell stain (excitation 504 nm, emission 523 nm) ([…], Thermo Fisher Scientific, MA) for viability to each sample. BCa cells were identified by gating live cells with a DiD+ signal using the FL4 channel on BD AccuriTM C6 instrument (CFlow Software) (BD Biosciences). A minimum of 5×103 events was acquired per sample and BCa cell counts were acquired and data was analyzed using the FlowJoTM v10 (Ashland, Oreg.) software. Relative cell count and Growth rate (GR) values. The GR values show the partial inhibition effect of the drug when it achieves GR values from 0 to 1, with the cytostatic effect being represented when the value is equal to 0 and the cytotoxic effect being represented when it lies between 0 and -1.

MDA-MB-231 = test: as above; format: cell-based, human; settings: 0.1 nM-300 μM, day 7
Procedure: as §2

[4] = tested on: fibrin degradation in the scaffold; test: 3DeTME scaffold integrity and stability (weight) with antifibrinolytic agents; design: species or system human
Procedure: as §1

MCF7 = test: 3DeTME drug screening, relative cell count and GR values; format: cell-based, human; settings: 0.1 nM-300 μM, day 7
Procedure: Methods: Three breast cancer (BCa) cell lines were previously labeled with DiD and incorporated in 3DeTME. Half a day after plating, cells were treated with a DMSO control (γCtrl) and increasing concentrations 0.1 nM-300 μM of seven standard-of-care chemotherapeutic drugs including Methotrexate (MTX), Paclitaxel (PTX), Capecitabine (CAP), Cyclophosphamide Monohydrate (CYCLO), Carboplatin (CARBO), Epirubicin Hydrochloride (EPI), and Docetaxel (DTX). Treatments were added on top of 3DeTME in order to simulate drug diffusion into a tumor. Treatments were refreshed at day 4 and BCa cells were retrieved from the different cultures for analysis at day 0.5 (γ0) and day 7. Samples were prepared in PBS for flow cytometry by adding counting beads (424902, Biolegend, CA) in addition to SytoxTM green dead cell stain (excitation 504 nm, emission 523 nm) ([MUT], Thermo Fisher Scientific, MA) for viability to each sample. BCa cells were identified by gating live cells with a DiD+ signal using the FL4 channel on BD AccuriTM C6 instrument (CFlow Software) (BD Biosciences). A minimum of 5×103 events was acquired per sample and BCa cell counts were acquired and data was analyzed using the FlowJoTM v10 (Ashland, Oreg.) software. Relative cell count and Growth rate (GR) values. […]

[5] = tested on: CD8+ T cell infiltration (PD-L1 blockade); test: CD8+ T cell infiltration into 3DeTME matrices seeded with BCa cells; format: cell-based, human; settings: 3DeTME tumorous (1.5% O2); 5 μM for the first 4 days; read at day 7
Procedure: Methods: 3DeTME cultures were grown with cancer cells for 4 days, while being exposed to variable O2 environments (21% and 1.5% O2). Peripheral blood mononuclear cells (PBMCs) were incorporated at day 4 as a cell suspension in the medium added on the top of the matrix, while being exposed to the same O2 environment up to day 7, (FIG. 5A). Oxygen partial pressure (pO2) levels were measured in BCa cell-seeded 3DeTME matrices incubated under variable O2 environments (21% and 1.5% O2) after 0, 2, 4 and 7 days of culture. 3DeTME scaffolds containing BCa cells were profiled along the z-direction with an oxygen microsensor (Needle-Type Oxygen Microsensor NTH-PSt7, PreSens, Regensburg, Germany) and a manual micromanipulator (FIG. 5B). Briefly, to record oxygen pressure, the sensor was introduced into the geometric center (3 measure points) of the 3DeTME and moved from the border between the media and 3DeTME (top) in 10 μm steps towards the bottom of the well plate, as illustrated in FIG. 5C. […]
Methods: Differences in lymphocyte infiltration into 3DeTME scaffolds as a result of different oxygen content were assessed. PBMCs were incorporated as cell suspension in the medium added on the top of the matrix at day 4 and analyzed at day 7. […] Mean absolute numbers of CD3+, CD4+, CD8+ and CD19+ cells (normalized to beads) were determined in each experimental group. […]

[6] = 5 and 10 mg/ml, weight at day 24 vs day 0

CC(C)(C#N)c1cc(Cn2cncn2)cc(C(C)(C)C#N)c1 [Arimidex]
activity at 45 µM ([1]; Homo sapiens, 168 h, "responder" patient, read-out: survival of BCa cells (% of control)): 17% | survival of BCa cells ([1]; patient with "resistance" clinical outcome, 45 μM): little to no effect

[Ca+2].[Cl-].[Cl-] [CaCl2, calcium chloride]
cross-linking time (fastest) ([2]; cross-linker at 1 mg/ml): 4 min

CCCCCOC(=O)Nc1nc(=O)n([C@@H]2O[C@H](C)[C@@H](O)[C@H]2O)cc1F [capecitabine, Capecitabine]
type of drug effect (GR value) ([3]; over the concentrations tested): cytostatic

N.N.O=C([O-])C1(C(=O)[O-])CCC1.[Pt+2] [carboplatin, Carboplatin]
response among the BCa cell lines [3]: heterogeneous response | sensitivity of the cell line relative to the other BCa cell lines (MDA-MB-231): most sensitive

NCCCCCC(=O)O [epsilon-aminocaproic acid]
integrity benefit ([4]; at the concentrations tested (0-2.5 mg/ml), day 24 vs day 0): not able to sustain an integrity benefit

CN(Cc1cnc2nc(N)nc(N)c2n1)c1ccc(C(=O)N[C@@H](CCC(=O)O)C(=O)O)cc1 [methotrexate, Methotrexate]
response among the BCa cell lines [3]: heterogeneous response | sensitivity of the cell line relative to the other BCa cell lines (MCF7): most resistant

NC[C@H]1CC[C@H](C(=O)O)CC1 [tranexamic acid, trans-4-(aminomethyl)cyclohexanecarboxylic acid]
weight gain as share of total weight [4, 6]: around 10% | weight gain of 3D culture [4, 6]: about 24 mg

Durvalumab: selective, high-affinity human IgG1 mAb that blocks programmed cell death ligand-1 (PD-L1) binding to PD-1
CD8 infiltration [5]: did reverse CD8 infiltration

Factor XIII: cross-linker of the blood coagulation process, required activation by calcium
cross-linking time (fastest) ([2]; cross-linker at 6 mg/ml, activated by incorporating calcium): over 40 min

thrombin
cross-linking time ([2]; cross-linker at 5 mg/ml): 5 min
